In PMC10191551, “Safety, Tolerability, and Pharmacokinetics of Oral Ferric Maltol in Children With Iron Deficiency: Phase 1 Study” (JPGN Reports, 2021):

How the values were obtained:
[1] = Phase 1 study: iron uptake (serum iron and TSAT) after oral ferric maltol; type: in vivo, children; conditions: 7.8, 16.6, 30 mg b.d.
Excerpt: Serum iron and TSAT provided measures of iron uptake.

[2] = cited from earlier work
[3] = parameters: method as in PMID 34029682; conditions: patients with CKD, over 16 weeks; ref [35]; cited from earlier work
[4] = Phase 1 study: safety and tolerability (adverse events, vital signs, ECG, laboratory tests, compliance) of oral ferric maltol; conditions: for Patients With an AE: Any AE: safety population
Excerpt: This phase 1, randomized, open-label, parallel-group pharmacokinetic study involved children seen as outpatients at 6 centers in the UK: Alder Hey Children’s NHS Foundation Trust; King’s College Hospital NHS Foundation Trust; University Hospitals of Leicester NHS Trust; Nottingham University Hospitals NHS Trust; Manchester University NHS Foundation Trust; and University College London Hospitals NHS Foundation Trust. […] Children aged 16 years or older and parents or guardians of children younger than 16 years provided written informed consent to participate before study initiation.
Children aged 10–17 years with confirmed iron deficiency at screening (defined as either ferritin <30 µg/L or ferritin <50 µg/L with transferrin saturation [TSAT] <20%) were eligible for inclusion in the study. Patients with or without anemia could be enrolled, provided hemoglobin was ≥8.5 g/dL at screening. Girls of childbearing potential had to agree to use adequate contraception during and until 4 weeks after the end of the study.
The study comprised a screening period followed by a 10-day randomized treatment period and a post-treatment safety follow-up. Children were randomized 1:1:1 (stratified by age [10–14 vs 15–17 years] and sex) to ferric maltol 7.8 mg, 16.6 mg, or 30 mg twice daily (b.d.) for 9 days and once in the morning of day 10. The first and last doses of ferric maltol were taken in the presence of the investigator. Children took each dose with a glass of water 1 hour before or 2 hours after a meal. Doses were based on daily elemental iron requirements for the broad range of body weights of participants likely to be enrolled, with the aim of finding a minimum effective dose in this age group. The 30 mg b.d. adult dosage was chosen as the highest exposure; dosages of 16.6 mg b.d. and 7.8 mg b.d. were chosen as approximately one-half and one-quarter of the adult dose, respectively, with the exact dose depending on the full fill of available capsule shell sizes.
The primary objectives were to assess iron uptake and ferric maltol pharmacokinetics. Serum iron and TSAT provided measures of iron uptake. In adults, dissociated maltol undergoes rapid glucuronidation and is cleared in urine as maltol glucuronide (36); therefore, in this study, plasma maltol glucuronide was measured to confirm the rate of clearance in children. The secondary objective was to assess the safety and tolerability of ferric maltol in terms of vital signs, AEs, concomitant medications, 12-lead electrocardiograms, and clinical laboratory blood tests.
Safety analyses were conducted in all patients who received at least 1 dose of the study medication and had at least 1 subsequent visit (the safety population). […] Clinically significant changes from baseline in vital signs, physical examination, and routine clinical laboratory abnormalities were also recorded.

In the case of `Cc1occc(=O)c1[O-].Cc1occc(=O)c1[O-].Cc1occc(=O)c1[O-].[Fe+3]` [Ferric maltol], the “Dose dependence of changes in serum iron concentrations” value [1] is given as “not dose-dependent”, the “Iron uptake (serum iron and TSAT)” value ([1]; days 1 and 10, ITT population) is given as “increased iron uptake” and the “Hemoglobin concentrations versus placebo” value ([2]; patients with IBD, over 12 weeks, ref [19]) is given as “significantly increased hemoglobin concentrations compared with placebo”. For the same compound, the “Incidence of gastrointestinal TEAEs” value ([2]; phase 3 trial in adults with IBD, ref [19],[20]) was 38%, the “Hemoglobin and iron indices” value [3] was “statistical and clinically significant increases in hemoglobin and iron indices” and the “Patients With an AE: Any SAE” value ([4]; 7.8 mg b.d. (n = 12)) was 0 (0.0) n (%). The “Patients With an AE: Any TEAE” value ([4]; 7.8 mg b.d. (n = 12)) was 7 (58.3) n (%), the “Patients With an AE: TEAE leading to study discontinuation” value (“Patients With an AE: TEAE leading” for short) ([4]; 7.8 mg b.d. (n = 12)) was 0 (0.0) n (%) and the “Patients With an AE: TEAE related to study drug” value ([4]; 7.8 mg b.d. (n = 12)) was 3 (25.0) n (%). For the same compound, the “Patients with a TEAE: Abdominal distension” value ([4]; 7.8 mg b.d. (n = 12)) was 0 (0.0) n (%), the “Patients with a TEAE: Abdominal pain” value ([4]; 7.8 mg b.d. (n = 12)) was 0 (0.0) n (%) and the “Patients with a TEAE: Anal incontinence” value ([4]; 7.8 mg b.d. (n = 12)) was 0 (0.0) n (%). The “Patients with a TEAE: Cellulitis” value ([4]; 7.8 mg b.d. (n = 12)) was 1 (8.3) n (%), the “Patients with a TEAE: Constipation” value ([4]; 7.8 mg b.d. (n = 12)) was 0 (0.0) n (%) and the “Patients with a TEAE: Cough” value ([4]; 7.8 mg b.d. (n = 12)) was 1 (8.3) n (%). For the same compound, the “Patients with a TEAE: Diarrhea” value ([4]; 7.8 mg b.d. (n = 12)) was 2 (16.7) n (%), the “Patients with a TEAE: Dizziness” value ([4]; 7.8 mg b.d. (n = 12)) was 0 (0.0) n (%) and the “Patients with a TEAE: Dyspepsia” value ([4]; 7.8 mg b.d. (n = 12)) was 0 (0.0) n (%). For the same compound, the “Patients with a TEAE: Dyspnea” value ([4]; 7.8 mg b.d. (n = 12)) was 1 (8.3) n (%), the “Patients with a TEAE: Fatigue” value ([4]; 7.8 mg b.d. (n = 12)) was 1 (8.3) n (%) and the “Patients with a TEAE: Nausea” value ([4]; 7.8 mg b.d. (n = 12)) was 1 (8.3) n (%). For the same compound, the “Patients with a TEAE: Nevus hemorrhage” value ([4]; 7.8 mg b.d. (n = 12)) was 1 (8.3) n (%), the “Patients with a TEAE: Palpitations” value ([4]; 7.8 mg b.d. (n = 12)) was 1 (8.3) n (%) and the “Patients with a TEAE: Papule” value ([4]; 7.8 mg b.d. (n = 12)) was 0 (0.0) n (%). The “Patients with a TEAE: Pyrexia” value ([4]; 7.8 mg b.d. (n = 12)) was 0 (0.0) n (%), the “Patients with a TEAE: Skin abrasion” value ([4]; 7.8 mg b.d. (n = 12)) was 0 (0.0) n (%) and the “Patients with a TEAE: Sneezing” value ([4]; 7.8 mg b.d. (n = 12)) was 1 (8.3) n (%). For the same compound, the “Patients with a TEAE: Tonsillitis” value ([4]; 7.8 mg b.d. (n = 12)) was 0 (0.0) n (%), the “Patients with a TEAE: Vomiting” value ([4]; 7.8 mg b.d. (n = 12)) was 1 (8.3) n (%) and the “TEAEs by system organ class: Cardiac disorders” value ([4]; 7.8 mg b.d. (n = 12)) was 1 (8.3) n (%). The “TEAEs by system organ class: Gastrointestinal disorders” value ([4]; 7.8 mg b.d. (n = 12)) was 4 (33.3) n (%), the “TEAEs by system organ class: General disorders and administration-site conditions” value ([4]; 7.8 mg b.d. (n = 12)) was 1 (8.3) n (%) and the “TEAEs by system organ class: Injury, poisoning, and procedural complications” value ([4]; 7.8 mg b.d. (n = 12)) was 0 (0.0) n (%). The “TEAEs by system organ class: Neoplasms benign, malignant, and unspecified” value ([4]; 7.8 mg b.d. (n = 12)) was 1 (8.3) n (%), the “TEAEs by system organ class: Nervous system disorders” value ([4]; 7.8 mg b.d. (n = 12)) was 1 (8.3) n (%) and the “TEAEs by system organ class: Respiratory, thoracic, and mediastinal disorders” value ([4]; 7.8 mg b.d. (n = 12)) was 3 (25.0) n (%). The “TEAEs by system organ class: Skin and subcutaneous-tissue disorders” value ([4]; 7.8 mg b.d. (n = 12)) was 1 (8.3) n (%), the “Patients With an AE: Any AE” value ([4]; 7.8 mg b.d. (n = 12)) was 7 (58.3) n (%) and the “Patients With an AE: Any SAE” value ([4]; 16.6 mg b.d. (n = 13)) was 0 (0.0) n (%). The “Patients With an AE: Any TEAE” value ([4]; 16.6 mg b.d. (n = 13)) was 6 (46.2) n (%), the “Patients With an AE: TEAE leading” value ([4]; 16.6 mg b.d. (n = 13)) was 1 (7.7) n (%) and the “Patients With an AE: TEAE related to study drug” value ([4]; 16.6 mg b.d. (n = 13)) was 1 (7.7) n (%). For the same compound, the “Patients with a TEAE: Abdominal distension” value ([4]; 16.6 mg b.d. (n = 13)) was 0 (0.0) n (%), the “Patients with a TEAE: Abdominal pain” value ([4]; 16.6 mg b.d. (n = 13)) was 0 (0.0) n (%) and the “Patients with a TEAE: Anal incontinence” value ([4]; 16.6 mg b.d. (n = 13)) was 0 (0.0) n (%). For the same compound, the “Patients with a TEAE: Cellulitis” value ([4]; 16.6 mg b.d. (n = 13)) was 0 (0.0) n (%), the “Patients with a TEAE: Constipation” value ([4]; 16.6 mg b.d. (n = 13)) was 0 (0.0) n (%) and the “Patients with a TEAE: Cough” value ([4]; 16.6 mg b.d. (n = 13)) was 0 (0.0) n (%). The “Patients with a TEAE: Diarrhea” value ([4]; 16.6 mg b.d. (n = 13)) was 0 (0.0) n (%), the “Patients with a TEAE: Dizziness” value ([4]; 16.6 mg b.d. (n = 13)) was 1 (7.7) n (%) and the “Patients with a TEAE: Dyspepsia” value ([4]; 16.6 mg b.d. (n = 13)) was 0 (0.0) n (%). For the same compound, the “Patients with a TEAE: Dyspnea” value ([4]; 16.6 mg b.d. (n = 13)) was 0 (0.0) n (%), the “Patients with a TEAE: Fatigue” value ([4]; 16.6 mg b.d. (n = 13)) was 1 (7.7) n (%) and the “Patients with a TEAE: Nausea” value ([4]; 16.6 mg b.d. (n = 13)) was 0 (0.0) n (%). The “Patients with a TEAE: Nevus hemorrhage” value ([4]; 16.6 mg b.d. (n = 13)) was 0 (0.0) n (%), the “Patients with a TEAE: Palpitations” value ([4]; 16.6 mg b.d. (n = 13)) was 0 (0.0) n (%) and the “Patients with a TEAE: Papule” value ([4]; 16.6 mg b.d. (n = 13)) was 0 (0.0) n (%). For the same compound, the “Patients with a TEAE: Pyrexia” value ([4]; 16.6 mg b.d. (n = 13)) was 0 (0.0) n (%), the “Patients with a TEAE: Skin abrasion” value ([4]; 16.6 mg b.d. (n = 13)) was 1 (7.7) n (%) and the “Patients with a TEAE: Sneezing” value ([4]; 16.6 mg b.d. (n = 13)) was 0 (0.0) n (%). The “Patients with a TEAE: Tonsillitis” value ([4]; 16.6 mg b.d. (n = 13)) was 1 (7.7) n (%), the “Patients with a TEAE: Vomiting” value ([4]; 16.6 mg b.d. (n = 13)) was 1 (7.7) n (%) and the “TEAEs by system organ class: Cardiac disorders” value ([4]; 16.6 mg b.d. (n = 13)) was 0 (0.0) n (%). For the same compound, the “TEAEs by system organ class: Gastrointestinal disorders” value ([4]; 16.6 mg b.d. (n = 13)) was 2 (15.4) n (%), the “TEAEs by system organ class: General disorders and administration-site conditions” value ([4]; 16.6 mg b.d. (n = 13)) was 2 (15.4) n (%) and the “TEAEs by system organ class: Injury, poisoning, and procedural complications” value ([4]; 16.6 mg b.d. (n = 13)) was 1 (7.7) n (%). For the same compound, the “TEAEs by system organ class: Neoplasms benign, malignant, and unspecified” value ([4]; 16.6 mg b.d. (n = 13)) was 0 (0.0) n (%), the “TEAEs by system organ class: Nervous system disorders” value ([4]; 16.6 mg b.d. (n = 13)) was 3 (23.1) n (%) and the “TEAEs by system organ class: Respiratory, thoracic, and mediastinal disorders” value ([4]; 16.6 mg b.d. (n = 13)) was 0 (0.0) n (%). For the same compound, the “TEAEs by system organ class: Skin and subcutaneous-tissue disorders” value ([4]; 16.6 mg b.d. (n = 13)) was 0 (0.0) n (%), the “Patients With an AE: Any AE” value ([4]; 16.6 mg b.d. (n = 13)) was 7 (53.8) n (%) and the “Children who discontinued the study early because of a TEAE” value ([4]; 16.6 mg group, moderate tonsillitis, not related to study drug) was 1. For the same compound, the “Patients With an AE: Any SAE” value ([4]; 30 mg b.d. (n = 12)) was 0 (0.0) n (%), the “Patients With an AE: Any TEAE” value ([4]; 30 mg b.d. (n = 12)) was 7 (58.3) n (%) and the “Patients With an AE: TEAE leading” value ([4]; 30 mg b.d. (n = 12)) was 0 (0.0) n (%). The “Patients With an AE: TEAE related to study drug” value ([4]; 30 mg b.d. (n = 12)) was 5 (41.7) n (%), the “Patients with a TEAE: Abdominal distension” value ([4]; 30 mg b.d. (n = 12)) was 1 (8.3) n (%) and the “Patients with a TEAE: Abdominal pain” value ([4]; 30 mg b.d. (n = 12)) was 1 (8.3) n (%). For the same compound, the “Patients with a TEAE: Anal incontinence” value ([4]; 30 mg b.d. (n = 12)) was 1 (8.3) n (%), the “Patients with a TEAE: Cellulitis” value ([4]; 30 mg b.d. (n = 12)) was 0 (0.0) n (%) and the “Patients with a TEAE: Constipation” value ([4]; 30 mg b.d. (n = 12)) was 1 (8.3) n (%). For the same compound, the “Patients with a TEAE: Cough” value ([4]; 30 mg b.d. (n = 12)) was 1 (8.3) n (%), the “Patients with a TEAE: Diarrhea” value ([4]; 30 mg b.d. (n = 12)) was 1 (8.3) n (%) and the “Patients with a TEAE: Dizziness” value ([4]; 30 mg b.d. (n = 12)) was 2 (16.7) n (%). For the same compound, the “Patients with a TEAE: Dyspepsia” value ([4]; 30 mg b.d. (n = 12)) was 1 (8.3) n (%), the “Patients with a TEAE: Dyspnea” value ([4]; 30 mg b.d. (n = 12)) was 0 (0.0) n (%) and the “Patients with a TEAE: Fatigue” value ([4]; 30 mg b.d. (n = 12)) was 2 (16.7) n (%). The “Patients with a TEAE: Nausea” value ([4]; 30 mg b.d. (n = 12)) was 1 (8.3) n (%), the “Patients with a TEAE: Nevus hemorrhage” value ([4]; 30 mg b.d. (n = 12)) was 0 (0.0) n (%) and the “Patients with a TEAE: Palpitations” value ([4]; 30 mg b.d. (n = 12)) was 0 (0.0) n (%).
